Reference: patent US20230085307A1, “PYRIDAZINONE COMPOUND AND HERBICIDE” (NISSAN CHEMICAL CORPORATION, priority 2019, published 2023)

Columns and labels:
Italian ryegrass [1] = assay: Test Example 5: herbicidal effect by foliage application, plastic box (Table 20, symbol K); format: in vivo, Italian ryegrass (Lolium multiflorum); details: foliage application, three weeks after application
Method in brief: (§1)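 Plants were sown into sterilized diluvial soil under about 1.5 cm cover and kept in a greenhouse at 25° C. to 30° C. Fourteen days on, foliage received an even spray of the diluted emulsion. Herbicidal or crop effect was judged three weeks afterwards.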

oval-leafed pondweed = assay: Test Example 2: herbicidal activity, application during weed generation under submerged conditions (Table 17, symbol C); format: in vivo, oval-leafed pondweed (Monochoria vaginalis); details: application during weed generation, submerged conditions
Method in brief: (§2)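 Effect on each weed is rated three weeks post-treatment, using the same scoring criteria as the preceding test. Plants grow from mixed-sown seed in flooded alluvial soil (4 cm water) at 25° C. to 30° C., and are treated at one to two leaves with diluted emulsion dropped onto the water.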

southern crabgrass = assay: Test Example 5: herbicidal effect by foliage application, plastic box (Table 20, symbol F); format: in vivo, southern crabgrass (Digitaria ciliaris); details: foliage application, three weeks after application
Method in brief: as §1

late watergrass [2] = assay: Test Example 1: herbicidal activity, application before weed generation under submerged conditions (Table 16, symbol A); format: in vivo, late watergrass (Echinochloa oryzicola)
Method in brief: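 Submerged Wagner pots (alluvial soil, 4 cm water) sown with weed seeds and planted with 2.5-leaf rice seedlings; emulsifiable concentrate diluted in water applied to water surface on sowing day. Held in greenhouse at 25-30 °C; injury scored 0-5 by herbicidal rate after three weeks.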

persian speedwell [3] = assay: Test Example 4: herbicidal effect by soil treatment (Table 19, symbol R); format: in vivo, Persian speedwell (Veronica persica)
Method in brief: (§3)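 In this soil treatment, the formulated compound reached the seeds only through the soil: seeds were buried about 1.5 cm deep in sterilized diluvial soil, then the diluted emulsion was sprayed over the surface. After three weeks at 25° C. to 30° C. in a greenhouse, effects were graded on criteria from an earlier test.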

windgrass [4] = assay: Test Example 4: herbicidal effect by soil treatment (Table 19, symbol L); format: in vivo, windgrass (Apera spica-venti)
Method in brief: as §3

rice flat sedge = assay: Test Example 3: herbicidal effect by foliage application, Wagner pot (Table 18, symbol E); format: in vivo, rice flat sedge (Cyperus iria)
Method in brief: (§4)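 Plants were sown in alluvial soil held under 0.1–0.5 cm standing water and grown 14 days in a greenhouse at 25–30 °C. An emulsifiable formulation, water-diluted to the set dose, was then sprayed onto the foliage, and effects were scored three weeks later using previously defined criteria.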

Italian ryegrass [5] = assay: Test Example 4: herbicidal effect by soil treatment (Table 19, symbol K); format: in vivo, Italian ryegrass (Lolium multiflorum)
Method in brief: as §3

chickweed = assay: Test Example 4: herbicidal effect by soil treatment (Table 19, symbol P); format: in vivo, common chickweed (Stellaria media)
Method in brief: as §3

windgrass [6] = assay: Test Example 5: herbicidal effect by foliage application, plastic box (Table 20, symbol L); format: in vivo, windgrass (Apera spica-venti); details: foliage application, three weeks after application
Method in brief: as §1

green foxtail [7] = assay: Test Example 4: herbicidal effect by soil treatment (Table 19, symbol G); format: in vivo, green foxtail (Setaria viridis)
Method in brief: as §3

late watergrass [8] = assay: Test Example 2: herbicidal activity, application during weed generation under submerged conditions (Table 17, symbol A); format: in vivo, late watergrass (Echinochloa oryzicola); details: application during weed generation, submerged conditions
Method in brief: as §2

barnyard grass = assay: Test Example 3: herbicidal effect by foliage application, Wagner pot (Table 18, symbol H); format: in vivo, barnyard grass (Echinochloa crus-galli)
Method in brief: as §4

green foxtail [9] = assay: Test Example 5: herbicidal effect by foliage application, plastic box (Table 20, symbol G); format: in vivo, green foxtail (Setaria viridis); details: foliage application, three weeks after application
Method in brief: as §1

Japanese bulrush = assay: Test Example 2: herbicidal activity, application during weed generation under submerged conditions (Table 17, symbol B); format: in vivo, Japanese bulrush (Schoenoplectus juncoides); details: application during weed generation, submerged conditions
Method in brief: as §2

persian speedwell [10] = assay: Test Example 5: herbicidal effect by foliage application, plastic box (Table 20, symbol R); format: in vivo, Persian speedwell (Veronica persica); details: foliage application, three weeks after application
Method in brief: as §1

lambsquarters = assay: Test Example 5: herbicidal effect by foliage application, plastic box (Table 20, symbol O); format: in vivo, lambsquarters (Chenopodium album); details: foliage application, three weeks after application
Method in brief: as §1

[11] = amount of applied herbicide 320 g/ha
[12] = amount of applied herbicide 80 g/ha

With `COc1cc(F)ccc1-c1sc2cc(C)ccc2c1-c1c(O)c(C)nn(C)c1=O` [3-055] the “K: Italian ryegrass, herbicidal effect grade” value (shortened to “K: Italian ryegrass”) (Italian ryegrass [1]; 320 g/ha) was 5 (Herbicidal rate of 90% or more (almost completely withered)), the “herbicidal effect rating, C: oval-leafed pondweed” value (“herbicidal effect rating, C” for short) (oval-leafed pondweed; AAH 320 g/ha) was 3 (Herbicidal rate of 40% or more and less than 70%) and the “F: southern crabgrass, herbicidal effect grade” value (“F: southern crabgrass” for short) (southern crabgrass; 320 g/ha) was 5 (Herbicidal rate of 90% or more (almost completely withered)). For the same molecule, the “Herbicidal effect, A: late watergrass” value (late watergrass [2]; [11]) was 4 (Herbicidal rate of 70% or more and less than 90%), the “R: persian speedwell, herbicidal effect grade” value (from here on “R: persian speedwell”) (persian speedwell [3]; [11]) was 4 (Herbicidal rate of 70% or more and less than 90%) and the “L: windgrass, herbicidal effect grade” value (windgrass [4]; [11]) was 2 (Herbicidal rate of 20% or more and less than 40%). The “herbicidal effect on rice flat sedge (E)” value (rice flat sedge; 320 g/ha) was 5 (Herbicidal rate of 90% or more (almost completely withered)), the “K: Italian ryegrass” value (Italian ryegrass [5]; [11]) was 0 (Herbicidal rate of 5% or less (almost no effect)) and the “P: chickweed, herbicidal effect grade” value (chickweed; [11]) was 4 (Herbicidal rate of 70% or more and less than 90%). The “L: windgrass, herbicidal effect grade” value (windgrass [6]; 320 g/ha) was 5 (Herbicidal rate of 90% or more (almost completely withered)), the “G: green foxtail, herbicidal effect grade” value (“G: green foxtail” for short) (green foxtail [7]; [11]) was 0 (Herbicidal rate of 5% or less (almost no effect)) and the “herbicidal effect rating, A: late watergrass” value (late watergrass [8]; AAH 320 g/ha) was 1 (Herbicidal rate of 5% or more and less than 20%). The “herbicidal effect on barnyard grass (H)” value (barnyard grass; 320 g/ha) was 5 (Herbicidal rate of 90% or more (almost completely withered)), the “G: green foxtail” value (green foxtail [9]; 320 g/ha) was 5 (Herbicidal rate of 90% or more (almost completely withered)) and the “herbicidal effect rating, B: Japanese bulrush” value (“herbicidal effect rating, B” for short) (Japanese bulrush; AAH 320 g/ha) was 1 (Herbicidal rate of 5% or more and less than 20%). The “R: persian speedwell” value (persian speedwell [10]; 320 g/ha) was 5 (Herbicidal rate of 90% or more (almost completely withered)) and the “O: lambsquarters, herbicidal effect grade” value (“O: lambsquarters” for short) (lambsquarters; 320 g/ha) was 5 (Herbicidal rate of 90% or more (almost completely withered)).
For `CCCC(=O)Oc1c(C)nn(C)c(=O)c1-c1c(-c2ccccc2OCC)sc2cc(OC)ccc12` [3-071], the “K: Italian ryegrass” value (Italian ryegrass [1]; 320 g/ha) was 4 (Herbicidal rate of 70% or more and less than 90%), the “herbicidal effect rating, C” value (oval-leafed pondweed; AAH 320 g/ha) was 5 (Herbicidal rate of 90% or more (almost completely withered)) and the “F: southern crabgrass” value (southern crabgrass; 320 g/ha) was 5 (Herbicidal rate of 90% or more (almost completely withered)). The “Herbicidal effect, A: late watergrass” value (late watergrass [2]; [11]) was 5 (Herbicidal rate of 90% or more (almost completely withered)), the “R: persian speedwell” value (persian speedwell [3]; [11]) was 5 (Herbicidal rate of 90% or more (almost completely withered)) and the “L: windgrass, herbicidal effect grade” value (windgrass [4]; [11]) was 4 (Herbicidal rate of 70% or more and less than 90%). The “herbicidal effect on rice flat sedge (E)” value (rice flat sedge; 320 g/ha) was 5 (Herbicidal rate of 90% or more (almost completely withered)), the “K: Italian ryegrass” value (Italian ryegrass [5]; [11]) was 2 (Herbicidal rate of 20% or more and less than 40%) and the “P: chickweed, herbicidal effect grade” value (chickweed; [11]) was 5 (Herbicidal rate of 90% or more (almost completely withered)). The “L: windgrass, herbicidal effect grade” value (windgrass [6]; 320 g/ha) was 5 (Herbicidal rate of 90% or more (almost completely withered)), the “G: green foxtail” value (green foxtail [7]; [11]) was 4 (Herbicidal rate of 70% or more and less than 90%) and the “herbicidal effect rating, A: late watergrass” value (late watergrass [8]; AAH 320 g/ha) was 5 (Herbicidal rate of 90% or more (almost completely withered)). The “herbicidal effect on barnyard grass (H)” value (barnyard grass; 320 g/ha) was 5 (Herbicidal rate of 90% or more (almost completely withered)), the “G: green foxtail” value (green foxtail [9]; 320 g/ha) was 5 (Herbicidal rate of 90% or more (almost completely withered)) and the “herbicidal effect rating, B” value (Japanese bulrush; AAH 320 g/ha) was 5 (Herbicidal rate of 90% or more (almost completely withered)). For the same molecule, the “R: persian speedwell” value (persian speedwell [10]; 320 g/ha) was 5 (Herbicidal rate of 90% or more (almost completely withered)) and the “O: lambsquarters” value (lambsquarters; 320 g/ha) was 5 (Herbicidal rate of 90% or more (almost completely withered)).
In the case of `CCOc1cc(F)ccc1-c1sc2cc(OC)ccc2c1-c1c(O)c(C)nn(C)c1=O` [3-078], the “K: Italian ryegrass” value (Italian ryegrass [1]; 80 g/ha) is reported as 4 (Herbicidal rate of 70% or more and less than 90%), the “herbicidal effect rating, C” value (oval-leafed pondweed; AAH 80 g/ha) is reported as 4 (Herbicidal rate of 70% or more and less than 90%) and the “F: southern crabgrass” value (southern crabgrass; 80 g/ha) is reported as 5 (Herbicidal rate of 90% or more (almost completely withered)). The “Herbicidal effect, A: late watergrass” value (late watergrass [2]; [12]) was 5 (Herbicidal rate of 90% or more (almost completely withered)), the “R: persian speedwell” value (persian speedwell [3]; [12]) was 5 (Herbicidal rate of 90% or more (almost completely withered)) and the “L: windgrass, herbicidal effect grade” value (windgrass [4]; [12]) was 0 (Herbicidal rate of 5% or less (almost no effect)). The “herbicidal effect on rice flat sedge (E)” value (rice flat sedge; 80 g/ha) was 5 (Herbicidal rate of 90% or more (almost completely withered)), the “K: Italian ryegrass” value (Italian ryegrass [5]; [12]) was 3 (Herbicidal rate of 40% or more and less than 70%) and the “P: chickweed, herbicidal effect grade” value (chickweed; [12]) was 5 (Herbicidal rate of 90% or more (almost completely withered)). For the same molecule, the “L: windgrass, herbicidal effect grade” value (windgrass [6]; 80 g/ha) was 5 (Herbicidal rate of 90% or more (almost completely withered)), the “G: green foxtail” value (green foxtail [7]; [12]) was 0 (Herbicidal rate of 5% or less (almost no effect)) and the “herbicidal effect rating, A: late watergrass” value (late watergrass [8]; AAH 80 g/ha) was 1 (Herbicidal rate of 5% or more and less than 20%). For the same molecule, the “herbicidal effect on barnyard grass (H)” value (barnyard grass; 80 g/ha) was 5 (Herbicidal rate of 90% or more (almost completely withered)), the “G: green foxtail” value (green foxtail [9]; 80 g/ha) was 4 (Herbicidal rate of 70% or more and less than 90%) and the “herbicidal effect rating, B” value (Japanese bulrush; AAH 80 g/ha) was 5 (Herbicidal rate of 90% or more (almost completely withered)). For the same molecule, the “R: persian speedwell” value (persian speedwell [10]; 80 g/ha) was 5 (Herbicidal rate of 90% or more (almost completely withered)) and the “O: lambsquarters” value (lambsquarters; 80 g/ha) was 5 (Herbicidal rate of 90% or more (almost completely withered)).
In the case of `CCCC(=O)Oc1c(C)nn(C)c(=O)c1-c1c(-c2ccc(F)cc2OCC)sc2cc(OC)ccc12` [3-079], the “K: Italian ryegrass” value (Italian ryegrass [1]; 320 g/ha) is reported as 4 (Herbicidal rate of 70% or more and less than 90%), the “herbicidal effect rating, C” value (oval-leafed pondweed; AAH 320 g/ha) is reported as 5 (Herbicidal rate of 90% or more (almost completely withered)) and the “F: southern crabgrass” value (southern crabgrass; 320 g/ha) is reported as 5 (Herbicidal rate of 90% or more (almost completely withered)). For the same molecule, the “Herbicidal effect, A: late watergrass” value (late watergrass [2]; [11]) was 5 (Herbicidal rate of 90% or more (almost completely withered)), the “R: persian speedwell” value (persian speedwell [3]; [11]) was 5 (Herbicidal rate of 90% or more (almost completely withered)) and the “L: windgrass, herbicidal effect grade” value (windgrass [4]; [11]) was 3 (Herbicidal rate of 40% or more and less than 70%). The “herbicidal effect on rice flat sedge (E)” value (rice flat sedge; 320 g/ha) was 5 (Herbicidal rate of 90% or more (almost completely withered)), the “K: Italian ryegrass” value (Italian ryegrass [5]; [11]) was 0 (Herbicidal rate of 5% or less (almost no effect)) and the “P: chickweed, herbicidal effect grade” value (chickweed; [11]) was 4 (Herbicidal rate of 70% or more and less than 90%). The “L: windgrass, herbicidal effect grade” value (windgrass [6]; 320 g/ha) was 5 (Herbicidal rate of 90% or more (almost completely withered)), the “G: green foxtail” value (green foxtail [7]; [11]) was 1 (Herbicidal rate of 5% or more and less than 20%) and the “herbicidal effect rating, A: late watergrass” value (late watergrass [8]; AAH 320 g/ha) was 5 (Herbicidal rate of 90% or more (almost completely withered)). For the same molecule, the “herbicidal effect on barnyard grass (H)” value (barnyard grass; 320 g/ha) was 5 (Herbicidal rate of 90% or more (almost completely withered)), the “G: green foxtail” value (green foxtail [9]; 320 g/ha) was 5 (Herbicidal rate of 90% or more (almost completely withered)) and the “herbicidal effect rating, B” value (Japanese bulrush; AAH 320 g/ha) was 5 (Herbicidal rate of 90% or more (almost completely withered)). The “R: persian speedwell” value (persian speedwell [10]; 320 g/ha) was 5 (Herbicidal rate of 90% or more (almost completely withered)) and the “O: lambsquarters” value (lambsquarters; 320 g/ha) was 5 (Herbicidal rate of 90% or more (almost completely withered)).
